Test results from the supplement of paper PMC10307832.

Legend:
Assay in all cases: relative viability (nuclei count vs DMSO), 5 days (fraction); higher = more cells survive
NCI-H2342 = tested on: NCI-H2342
In short: (§1)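 Lung cancer cell lines were pin-tool dosed in 1536-well plates on the day after seeding, with either a lone drug or a fixed anchor-drug dose plus five library-drug doses (not always all listed) in √10 steps. Nuclei were counted on 4× images after 5 days. Relative viability is the ratio of treated-well to vehicle-well nuclei counts, with each value a median of duplicate plates.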

EKVX = tested on: EKVX
In short: as §1

HCC-78 = tested on: HCC-78
In short: as §1

NCI-H1755 = tested on: NCI-H1755
In short: as §1

LXF-289 = tested on: LXF-289
In short: as §1

SK-LU-1 = tested on: SK-LU-1
In short: as §1

BEN = tested on: BEN
In short: as §1

NCI-H1650 = tested on: NCI-H1650
In short: as §1

HCC-366 = tested on: HCC-366
In short: as §1

HCC-15 = tested on: HCC-15
In short: as §1

LU99A = tested on: LU99A
In short: as §1

NCI-H1993 = tested on: NCI-H1993
In short: as §1

NCI-H1703 = tested on: NCI-H1703
In short: as §1

HARA = tested on: HARA
In short: as §1

COR-L23 = tested on: COR-L23
In short: as §1

201T = tested on: 201T
In short: as §1

HCC-827 = tested on: HCC-827
In short: as §1

NCI-H3122 = tested on: NCI-H3122
In short: as §1

NCI-H1944 = tested on: NCI-H1944
In short: as §1

COR-L 105 = tested on: COR-L 105
In short: as §1

NCI-H596 = tested on: NCI-H596
In short: as §1

NCI-H1975 = tested on: NCI-H1975
In short: as §1

NCI-H1734 = tested on: NCI-H1734
In short: as §1

For CCCCCCCCCCCC1=C(O)C(=O)C=C(O)C1=O [Embelin] + COc1cc2c(Oc3ccc(NC(=O)C4(C(=O)Nc5ccc(F)cc5)CC4)cc3F)ccnc2cc1OCCCN1CCOCC1 [Foretinib] (partner 0.25 µM), which relative viability (NCI-H2342; first compound 0.08 µM) is on record?
The relative viability was 1.12.

And the relative viability (NCI-H2342; first compound 0.8 µM)?
The relative viability was 1.12.

And the relative viability (NCI-H2342; first compound 2.53 µM)?
The relative viability was 1.18.

And the relative viability (NCI-H2342; first compound 8 µM)?
Its relative viability is 1.07.

What about the relative viability (EKVX; first compound 0.08 µM) of the same compound?
Its relative viability is 0.789.

And the relative viability (EKVX; first compound 0.8 µM)?
Its relative viability is 0.926.

What about the relative viability (EKVX; first compound 2.53 µM) of the same compound?
Its relative viability is 0.625.

And the relative viability (EKVX; first compound 8 µM)?
The relative viability was 0.875.

And the relative viability (HCC-78; first compound 0.08 µM)?
Its relative viability is 0.544.

What about the relative viability (HCC-78; first compound 0.8 µM) of the same compound?
The relative viability was 0.601.

What about the relative viability (HCC-78; first compound 2.53 µM) of the same compound?
The relative viability was 0.65.

And the relative viability (HCC-78; first compound 8 µM)?
Its relative viability is 0.559.

And the relative viability (NCI-H1755; first compound 0.08 µM)?
Its relative viability is 0.912.

What about the relative viability (NCI-H1755; first compound 0.8 µM) of the same compound?
Its relative viability is 0.948.

And the relative viability (NCI-H1755; first compound 2.53 µM)?
The relative viability was 0.927.

What about the relative viability (NCI-H1755; first compound 8 µM) of the same compound?
Its relative viability is 0.906.

And the relative viability (LXF-289; first compound 0.08 µM)?
The relative viability was 0.999.

And the relative viability (LXF-289; first compound 0.8 µM)?
The relative viability was 1.

And the relative viability (LXF-289; first compound 2.53 µM)?
The relative viability was 1.06.

What about the relative viability (LXF-289; first compound 8 µM) of the same compound?
Its relative viability is 0.998.

What about the relative viability (SK-LU-1; first compound 0.08 µM) of the same compound?
The relative viability was 0.953.

And the relative viability (SK-LU-1; first compound 0.8 µM)?
The relative viability was 0.861.

And the relative viability (SK-LU-1; first compound 2.53 µM)?
Its relative viability is 1.04.

What about the relative viability (SK-LU-1; first compound 8 µM) of the same compound?
The relative viability was 0.888.

What about the relative viability (BEN; first compound 0.08 µM) of the same compound?
The relative viability was 0.681.

And the relative viability (BEN; first compound 0.8 µM)?
The relative viability was 0.954.

And the relative viability (BEN; first compound 2.53 µM)?
The relative viability was 0.677.

And the relative viability (BEN; first compound 8 µM)?
Its relative viability is 0.867.

And the relative viability (NCI-H1650; first compound 0.08 µM)?
Its relative viability is 1.09.

What about the relative viability (NCI-H1650; first compound 0.8 µM) of the same compound?
The relative viability was 1.05.

And the relative viability (NCI-H1650; first compound 2.53 µM)?
Its relative viability is 1.11.

What about the relative viability (NCI-H1650; first compound 8 µM) of the same compound?
The relative viability was 0.968.

What about the relative viability (HCC-366; first compound 0.08 µM) of the same compound?
The relative viability was 0.906.

What about the relative viability (HCC-366; first compound 0.8 µM) of the same compound?
Its relative viability is 1.03.

And the relative viability (HCC-366; first compound 2.53 µM)?
Its relative viability is 0.94.

And the relative viability (HCC-366; first compound 8 µM)?
The relative viability was 0.99.

What about the relative viability (HCC-15; first compound 0.08 µM) of the same compound?
Its relative viability is 1.01.

What about the relative viability (HCC-15; first compound 0.8 µM) of the same compound?
The relative viability was 1.08.

And the relative viability (HCC-15; first compound 2.53 µM)?
Its relative viability is 1.14.

And the relative viability (HCC-15; first compound 8 µM)?
Its relative viability is 1.08.

What about the relative viability (LU99A; first compound 0.08 µM) of the same compound?
Its relative viability is 0.907.

And the relative viability (LU99A; first compound 0.8 µM)?
Its relative viability is 0.934.

What about the relative viability (LU99A; first compound 2.53 µM) of the same compound?
Its relative viability is 0.864.

And the relative viability (LU99A; first compound 8 µM)?
The relative viability was 0.766.

What about the relative viability (NCI-H1993; first compound 0.08 µM) of the same compound?
Its relative viability is 0.803.

And the relative viability (NCI-H1993; first compound 0.8 µM)?
The relative viability was 0.699.

And the relative viability (NCI-H1993; first compound 2.53 µM)?
The relative viability was 0.876.

And the relative viability (NCI-H1993; first compound 8 µM)?
The relative viability was 0.834.

What about the relative viability (NCI-H1703; first compound 0.08 µM) of the same compound?
The relative viability was 0.413.

What about the relative viability (NCI-H1703; first compound 0.8 µM) of the same compound?
Its relative viability is 0.404.

What about the relative viability (NCI-H1703; first compound 2.53 µM) of the same compound?
The relative viability was 0.392.

What about the relative viability (NCI-H1703; first compound 8 µM) of the same compound?
Its relative viability is 0.314.

And the relative viability (HARA; first compound 0.08 µM)?
Its relative viability is 0.827.

And the relative viability (HARA; first compound 0.8 µM)?
The relative viability was 0.968.

What about the relative viability (HARA; first compound 2.53 µM) of the same compound?
Its relative viability is 1.18.

And the relative viability (HARA; first compound 8 µM)?
Its relative viability is 0.942.

What about the relative viability (COR-L23; first compound 0.08 µM) of the same compound?
Its relative viability is 1.

And the relative viability (COR-L23; first compound 0.8 µM)?
Its relative viability is 1.13.

And the relative viability (COR-L23; first compound 2.53 µM)?
The relative viability was 1.01.

What about the relative viability (COR-L23; first compound 8 µM) of the same compound?
The relative viability was 1.14.

What about the relative viability (201T; first compound 0.08 µM) of the same compound?
Its relative viability is 1.14.

And the relative viability (201T; first compound 0.8 µM)?
The relative viability was 1.15.

What about the relative viability (201T; first compound 2.53 µM) of the same compound?
Its relative viability is 1.18.

And the relative viability (201T; first compound 8 µM)?
The relative viability was 0.961.

And the relative viability (HCC-827; first compound 0.08 µM)?
The relative viability was 0.993.

What about the relative viability (HCC-827; first compound 0.8 µM) of the same compound?
The relative viability was 1.11.

And the relative viability (HCC-827; first compound 2.53 µM)?
Its relative viability is 1.03.

And the relative viability (HCC-827; first compound 8 µM)?
The relative viability was 1.16.

What about the relative viability (NCI-H3122; first compound 0.08 µM) of the same compound?
Its relative viability is 0.98.

What about the relative viability (NCI-H3122; first compound 0.8 µM) of the same compound?
Its relative viability is 1.01.

What about the relative viability (NCI-H3122; first compound 2.53 µM) of the same compound?
Its relative viability is 0.951.

And the relative viability (NCI-H3122; first compound 8 µM)?
The relative viability was 1.03.

What about the relative viability (NCI-H1944; first compound 0.08 µM) of the same compound?
Its relative viability is 0.842.

And the relative viability (NCI-H1944; first compound 0.8 µM)?
The relative viability was 0.968.

What about the relative viability (NCI-H1944; first compound 2.53 µM) of the same compound?
Its relative viability is 0.989.

What about the relative viability (NCI-H1944; first compound 8 µM) of the same compound?
The relative viability was 0.998.

And the relative viability (COR-L 105; first compound 0.08 µM)?
Its relative viability is 1.04.

And the relative viability (COR-L 105; first compound 0.8 µM)?
The relative viability was 1.05.

And the relative viability (COR-L 105; first compound 2.53 µM)?
The relative viability was 1.18.

And the relative viability (COR-L 105; first compound 8 µM)?
Its relative viability is 0.807.

And the relative viability (NCI-H596; first compound 0.08 µM)?
Its relative viability is 0.834.

What about the relative viability (NCI-H596; first compound 0.8 µM) of the same compound?
Its relative viability is 0.835.

And the relative viability (NCI-H596; first compound 2.53 µM)?
The relative viability was 1.02.

What about the relative viability (NCI-H596; first compound 8 µM) of the same compound?
The relative viability was 0.764.

What about the relative viability (NCI-H1975; first compound 0.08 µM) of the same compound?
Its relative viability is 1.06.

What about the relative viability (NCI-H1975; first compound 0.8 µM) of the same compound?
The relative viability was 0.97.

And the relative viability (NCI-H1975; first compound 2.53 µM)?
Its relative viability is 1.01.

What about the relative viability (NCI-H1975; first compound 8 µM) of the same compound?
The relative viability was 1.07.

And the relative viability (NCI-H1734; first compound 0.08 µM)?
The relative viability was 0.899.

And the relative viability (NCI-H1734; first compound 0.8 µM)?
The relative viability was 0.926.

What about the relative viability (NCI-H1734; first compound 2.53 µM) of the same compound?
Its relative viability is 0.989.

What about the relative viability (NCI-H1734; first compound 8 µM) of the same compound?
Its relative viability is 0.924.
